The values that follow come from ChEMBL document CHEMBL1201862, “PubChem BioAssay data set” (2004).

Test systems include HOP-62; KM12; UACC-62; SK-OV-3; MOLT-4; LOX IMVI; A498; HL-60; NCI-H23; A549; M14; RPMI-8226; OVCAR-4; NCI-H460; EKVX; OVCAR-5; HCT-116; SNB-75; SK-MEL-28.
Experiment in all cases: NCI tumour cell line growth inhibition, 48 h

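These data come from cells grown in 96-well plates and exposed to compound for 48 hours at five concentrations. Abbreviation: GI50, concentration required for 50% inhibition of growth.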 The source made the active and inactive calls. No stated cut-off is given here; in the data, active = GI50 up to about 1.1 µM and inactive = higher.

Take `C#Cc1c(C)c(/C=C/C(C)=C\C(=O)OC)n(C)c1C`: the GI50 is 71.1 µM (inactive) in the assay with HOP-62; 99.1 µM (inactive) with KM12; 70.8 µM (inactive) with UACC-62; > 100 µM (inactive) in the assay with SK-OV-3; 7.06 µM (inactive) in the assay with MOLT-4; > 100 µM (inactive) in the assay on LOX IMVI. Further, the GI50 with A498 was 81.3 µM (inactive); in the assay on HL-60, 6.65 µM (inactive); with NCI-H23, > 100 µM (inactive); in the assay on A549, > 100 µM (inactive); in the assay with M14, > 100 µM (inactive); in the assay with RPMI-8226 it was 18.8 µM (inactive). For the same compound, the GI50 in the assay on OVCAR-4 was 75.9 µM (inactive); in the assay with NCI-H460, 63.7 µM (inactive); in the assay on EKVX, > 100 µM (inactive); in the assay with OVCAR-5, > 100 µM (inactive).
Take `CCCCCC/C(CC(=O)CCC(=O)NCCc1ccccc1)=N\NC(=O)c1ccc2ccccc2c1O`: the GI50 is 36.7 µM (inactive) in the assay with HOP-62; 35.1 µM (inactive) in the assay with KM12; 22 µM (inactive) in the assay with UACC-62; 11.5 µM (inactive) in the assay with MOLT-4; 29.9 µM (inactive) in the assay with HCT-116; 17.7 µM (inactive) with LOX IMVI. Also, the GI50 in the assay with SNB-75 is 78.5 µM (inactive); with HL-60, 7.78 µM (inactive); in the assay with NCI-H23, 31.6 µM (inactive); in the assay on A549 it was 48.2 µM (inactive); in the assay with SK-MEL-28 it was 45.9 µM (inactive); in the assay with M14, 33.3 µM (inactive). Moreover, the GI50 was 46 µM (inactive) with RPMI-8226; 37.8 µM (inactive) in the assay on OVCAR-4; 36.5 µM (inactive) in the assay on NCI-H460; 43.2 µM (inactive) in the assay with EKVX; 21.5 µM (inactive) in the assay with OVCAR-5.
Consider `O=C(CCC(=O)Nc1ccccc1C(F)(F)F)N/N=C1\C(=N\NC(=O)CCC(=O)Nc2ccccc2C(F)(F)F)C(c2ccc3c(c2)OCO3)Oc2ccccc21` (configuration not stated), for which the GI50 is 4.28 µM (inactive) with HOP-62; 26.2 µM (inactive) with KM12; 5.46 µM (inactive) in the assay with UACC-62; 20.7 µM (inactive) in the assay with SK-OV-3; 3.01 µM (inactive) in the assay on MOLT-4; 5.9 µM (inactive) with HCT-116. The GI50 with LOX IMVI was 6.28 µM (inactive); with SNB-75 it was 10 µM (inactive); in the assay on A498, 51.3 µM (inactive); in the assay on HL-60 it was 3.4 µM (inactive); in the assay with NCI-H23, 22.8 µM (inactive); in the assay with A549 it was 7.16 µM (inactive). In addition, the GI50 is > 100 µM (inactive) in the assay with SK-MEL-28; > 100 µM (inactive) in the assay with M14; 4.44 µM (inactive) in the assay on RPMI-8226; 9.95 µM (inactive) in the assay with OVCAR-4; 4.02 µM (inactive) with NCI-H460; 9.79 µM (inactive) in the assay on EKVX. Besides, the GI50 in the assay with OVCAR-5 was > 100 µM (inactive).
Consider `CCCCCC1CC(C(C)=O)CN1c1ccc(F)cc1` (configuration not stated), for which the GI50 in the assay on KM12 is 35.6 µM (inactive); in the assay on HCT-116 it was 27.1 µM (inactive); with LOX IMVI, 28 µM (inactive); in the assay with SNB-75, 25.5 µM (inactive); in the assay on A498 it was 77.6 µM (inactive); in the assay with HL-60 it was > 10 µM (inactive). The GI50 in the assay on NCI-H23 is 24.8 µM (inactive); with A549, 51.4 µM (inactive); in the assay on SK-MEL-28 it was 54.5 µM (inactive); with M14, 35 µM (inactive); in the assay with NCI-H460, 44.4 µM (inactive); in the assay on EKVX, 50.6 µM (inactive). Besides, the GI50 in the assay with OVCAR-5 was > 100 µM (inactive).
Take `COc1ccc(/C=N/NC(=O)NCCCN(C)C)cc1`: the GI50 in the assay on KM12 was > 100 µM (inactive); with UACC-62, > 100 µM (inactive); in the assay with SK-OV-3, > 100 µM (inactive); in the assay on MOLT-4 it was > 100 µM (inactive); in the assay on HCT-116 it was > 100 µM (inactive); with LOX IMVI it was 85.9 µM (inactive). Further, the GI50 in the assay on A498, in the assay on HL-60, in the assay with NCI-H23, with A549, with SK-MEL-28 and in the assay with NCI-H460 was > 100 µM (inactive) throughout.
On to `CCOC(=O)[C@H]1Nc2c(cccc2[N+](=O)[O-])C2c3ccccc3CC21` (some centres not stated), for which the GI50 in the assay on HOP-62, in the assay with KM12, in the assay on UACC-62, with MOLT-4, in the assay on HCT-116 and in the assay with LOX IMVI was > 100 µM (inactive) throughout. The GI50 in the assay on SNB-75, in the assay with NCI-H23, in the assay on A549, in the assay on SK-MEL-28, in the assay on M14 and in the assay on RPMI-8226 was > 100 µM (inactive) throughout. The GI50 with OVCAR-4 was 36.9 µM (inactive); with NCI-H460, > 100 µM (inactive); in the assay on OVCAR-5 it was > 100 µM (inactive).
As to `O=C(Nc1cccc(C(F)(F)F)c1)C(=O)C(C(=O)c1ccc(Cl)c(Cl)c1)C1OC(=O)c2ccccc21` (configuration not stated), the GI50 in the assay on HOP-62 was 28.3 µM (inactive); with KM12, 47.2 µM (inactive); with UACC-62, 28.6 µM (inactive); in the assay on SK-OV-3, > 100 µM (inactive); with MOLT-4, 48.9 µM (inactive); with HCT-116, 17.5 µM (inactive). Also, the GI50 with LOX IMVI was 27.3 µM (inactive); with SNB-75, 22.7 µM (inactive); with A498 it was 21.4 µM (inactive); in the assay on HL-60 it was 29.4 µM (inactive); in the assay on NCI-H23, 27.4 µM (inactive); in the assay on A549, 44.2 µM (inactive). Further, the GI50 in the assay with M14 is 81.1 µM (inactive); with RPMI-8226 it was 56 µM (inactive); in the assay with OVCAR-4, 40 µM (inactive); in the assay with NCI-H460 it was 31.8 µM (inactive); with EKVX it was 79.1 µM (inactive); in the assay on OVCAR-5, 62.4 µM (inactive).
With `COC1=CC(=O)c2ccccc2C1(C)C1=NC(C)(C)CO1` (configuration not stated), the GI50 in the assay on HOP-62, in the assay on KM12, with UACC-62, in the assay with SK-OV-3, in the assay on MOLT-4 and in the assay on HCT-116 was > 100 µM (inactive) throughout. For the same compound, the GI50 with SNB-75, with HL-60, with NCI-H23, in the assay on A549, in the assay with SK-MEL-28 and in the assay with M14 was > 100 µM (inactive) each time. For the same compound, the GI50 with RPMI-8226, with OVCAR-4, in the assay with NCI-H460 and in the assay with EKVX was > 100 µM (inactive) throughout.
For the compound `O=C1C2=C(c3ccccc31)C(c1ccc(Cl)cc1)NC(S)=N2` (configuration not stated), the GI50 in the assay on HOP-62 was 28.2 µM (inactive); with KM12, 23.6 µM (inactive); with UACC-62, 23 µM (inactive); with SK-OV-3, 69.2 µM (inactive); in the assay on MOLT-4, 17.9 µM (inactive); in the assay with HCT-116 it was 15.1 µM (inactive). Besides, the GI50 is 15.9 µM (inactive) with SNB-75; 79.1 µM (inactive) in the assay with A498; 17.5 µM (inactive) in the assay on HL-60; 17.3 µM (inactive) with NCI-H23; 19.4 µM (inactive) in the assay with A549; 17.1 µM (inactive) in the assay on SK-MEL-28. The GI50 in the assay on M14 is 23.3 µM (inactive); in the assay on RPMI-8226, 20.3 µM (inactive); in the assay on OVCAR-4, 15.5 µM (inactive); with NCI-H460, 34.8 µM (inactive); in the assay with EKVX, 36.9 µM (inactive); in the assay on OVCAR-5 it was 46.7 µM (inactive).
Consider `O=C(O)c1cc2c3c(c1)[C@H]1C=CC[C@H]1CN3CC1CC=CC21` (some centres not stated), for which the GI50 with HOP-62, with KM12, with UACC-62, in the assay on SK-OV-3, in the assay with MOLT-4 and with HCT-116 was > 100 µM (inactive) each time. Moreover, the GI50 in the assay on LOX IMVI, with SNB-75, with A498, with HL-60, in the assay on NCI-H23 and in the assay with A549 was > 100 µM (inactive) in each case. Also, the GI50 in the assay on M14, with RPMI-8226, in the assay with OVCAR-4, in the assay with NCI-H460, with EKVX and in the assay with OVCAR-5 was > 100 µM (inactive) throughout.
`Nc1nc(Cl)cc(NCCCCCCCCCCCCNc2cc(Cl)nc(N)n2)n1`: the GI50 with HOP-62 is 12.2 µM (inactive); in the assay on KM12 it was 83 µM (inactive); in the assay with UACC-62 it was 6.84 µM (inactive); in the assay on SK-OV-3 it was 32.4 µM (inactive); in the assay with MOLT-4, 1.33 µM (inactive); in the assay on HCT-116, 0.832 µM (active). The GI50 in the assay with LOX IMVI was 0.0869 µM (active); with SNB-75, 8.53 µM (inactive); in the assay on A498 it was 12.9 µM (inactive); in the assay on HL-60, 1.14 µM (inactive); in the assay with NCI-H23, 0.0136 µM (active); with A549, 7.45 µM (inactive). The GI50 in the assay with SK-MEL-28 was 7.67 µM (inactive); in the assay with M14, 38 µM (inactive); in the assay on RPMI-8226, > 100 µM (inactive); in the assay on OVCAR-4 it was 4.36 µM (inactive); with NCI-H460 it was 2.5 µM (inactive); with EKVX, 12.3 µM (inactive).
As for `CC1(C)CCc2cc3c(cc2O1)OC(C)(C)CC3=O`, the GI50 was 23.2 µM (inactive) in the assay on HOP-62; > 100 µM (inactive) in the assay on KM12; > 100 µM (inactive) with UACC-62; > 100 µM (inactive) in the assay with SK-OV-3; 46.8 µM (inactive) with MOLT-4; 71.1 µM (inactive) in the assay with HCT-116. Also, the GI50 in the assay with LOX IMVI is > 100 µM (inactive); in the assay on SNB-75, 70.8 µM (inactive); with HL-60, 23.4 µM (inactive); with NCI-H23, 91.6 µM (inactive); with A549 it was 75.2 µM (inactive); in the assay on M14, > 100 µM (inactive). For the same compound, the GI50 was > 100 µM (inactive) in the assay with RPMI-8226; 62.8 µM (inactive) with OVCAR-4; > 100 µM (inactive) with NCI-H460; 93.5 µM (inactive) in the assay on EKVX; 46.8 µM (inactive) with OVCAR-5.
